Laboratory results as given in patent publication US7579469B2, “Glucocorticoid mimetics, methods of making them, pharmaceutical compositions, and uses thereof” (Boehringer Ingelheim Pharmaceuticals, Inc., priority 2003, dated 2009).

Tests used:
[1] = test system: Osteocalcin Production from Osteoblast Cell Line MG-63; experiment: Inhibition of osteocalcin production from osteoblast cell line MG-63; format: cell-based, human; conditions: MG-63 cells, Vitamin D 10 nM, 48 hours, osteocalcin ELISA
Description: Representative compounds of the invention have been tested and have shown activity as modulators of the glucocorticoid receptor function in one or more of the above assays. […] 7. Inhibition of Osteocalcin Production from Osteoblast Cell Line MG-63
Human osteosarcoma MG-63 cells (ATCC, Cat. No. CRL-1427) are plated on 96 well plates at 20,000 cells per well the day before use in 200 μL media of 99% D-MEM/F-12 (Gibco-Invitrogen, Cat. No. 11039-021), supplemented with 1% penicillin and streptomycin (Gibco-Invitrogen, Cat. No. 15140-122), 10 μg/mL Vitamin C (Sigma, Cat. No. A4544), and 1% charcoal filtered Fetal Bovine Serum (HyClone, Cat. No. SH30068.02). The next day, wells are replaced with fresh media. Cells are treated with Vitamin D (Sigma, Cat. No. D1530) to a final concentration of 10 nM, and with the test compounds in concentrations of 10^−6 M to 10^−9 M, in a total volume of 200 μL per well. Samples are done in duplicates. […] Positive control wells receive Vitamin D only, without compounds, and represent maximum (100%) amount of osteocalcin production. Plates are incubated at 37° C. incubator for 48 hours and supernatants are harvested at the end of incubation. Amounts of osteocalcin in the supernatants are determined by the Glype osteocalcin ELISA kit (Zymed, Cat. No. 99-0054) according to manufacture's protocol. Inhibition of osteocalcin by test compounds is expressed in percentage relative to positive controls. IC50 values of the test compounds are derived by non-lineal curve fitting.

[2] = target: T1, human glucocorticoid receptor (GR) complex (Homo sapiens, UniProt P04150); experiment: Glucocorticoid receptor competitive binding assay (fluorescence polarization); conditions: competition with TAMRA-labeled dexamethasone
T1 construct: made in house; host or cells: insect expression system (baculovirus lysate)
T1 sequence (P04150 1-777): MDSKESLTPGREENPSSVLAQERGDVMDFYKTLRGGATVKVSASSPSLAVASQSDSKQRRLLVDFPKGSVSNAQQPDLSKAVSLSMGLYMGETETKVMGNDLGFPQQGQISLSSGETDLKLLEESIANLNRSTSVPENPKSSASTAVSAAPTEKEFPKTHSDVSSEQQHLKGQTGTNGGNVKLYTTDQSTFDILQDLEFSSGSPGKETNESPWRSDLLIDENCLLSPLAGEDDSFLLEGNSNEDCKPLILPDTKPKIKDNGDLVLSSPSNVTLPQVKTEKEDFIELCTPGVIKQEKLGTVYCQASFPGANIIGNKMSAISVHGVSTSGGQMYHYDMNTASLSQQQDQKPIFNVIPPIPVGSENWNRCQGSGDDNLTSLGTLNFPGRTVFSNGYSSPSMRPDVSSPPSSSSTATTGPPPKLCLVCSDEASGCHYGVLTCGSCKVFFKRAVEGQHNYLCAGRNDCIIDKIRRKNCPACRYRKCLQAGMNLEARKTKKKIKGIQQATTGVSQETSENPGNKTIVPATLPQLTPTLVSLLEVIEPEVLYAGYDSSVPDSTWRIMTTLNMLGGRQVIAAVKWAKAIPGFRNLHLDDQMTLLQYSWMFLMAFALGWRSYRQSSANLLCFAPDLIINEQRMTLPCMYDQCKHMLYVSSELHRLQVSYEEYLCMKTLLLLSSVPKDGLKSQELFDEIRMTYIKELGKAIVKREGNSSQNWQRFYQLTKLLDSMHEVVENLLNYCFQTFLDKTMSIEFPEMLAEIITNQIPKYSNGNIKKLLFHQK
Method in brief: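 Fluorescence polarization competition against TAMRA-labelled dexamethasone (50 μL of 15 nM added) for human GR complex from baculovirus insect-cell lysate, diluted 1:170, in TES/KCl/molybdate buffer, pH 7.4.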

| Structure (SMILES) | inhibit the vitamin D stimulated production of osteocalcin [1] | activity in the GR binding assay [2] | melting point [°C] |
| --- | --- | --- | --- |
| CC(C)(CC(O)(Cn1ccc(=O)c2ncccc21)C(F)(F)F)c1cc(F)ccc1O (stereo not drawn) | inhibit |  |  |
| CC(C)(CC(O)(Cn1ccc(=O)c2ccccc21)C(F)(F)F)c1cccc(-c2ccccc2)c1 (stereo not drawn) [1-(4-Biphenyl-3-yl-2-hydroxy-4-methyl-2-trifluoromethylpentyl)-1H-quinolin-4-one] | inhibit |  |  |
| CC(C)(CC(O)(Cn1ccc(=O)c2ccccc21)C(F)(F)F)c1cc(S(C)(=O)=O)cc2c1OCC2 (stereo not drawn) [1-[2-Hydroxy-4-(5-methanesulfonyl-2,3-dihydrobenzofuran-7-yl)-4-methyl-2-trifluoromethylpentyl]-1H-quinolin-4-one] | inhibit | potent activity |  |
| CC(C)(CC(O)(Cn1ccc(=O)c2ccccc21)C(F)(F)F)c1cc(Br)cc2c1OCC2 (stereo not drawn) [1-[4-(5-Bromo-2,3-dihydrobenzofuran-7-yl)-2-hydroxy-4-methyl-2-trifluoromethylpentyl]-1H-quinolin-4-one] | inhibit | potent activity |  |
| CC(C)(CC(O)(Cn1ccc(=O)c2ccccc21)C(F)(F)F)c1cc(F)ccc1O (stereo not drawn) [1-[4-(5-Fluoro-2-hydroxyphenyl)-2-hydroxy-4-methyl-2-trifluoromethylpentyl]-1H-quinolin-4-one] | inhibit | potent activity |  |
| CC(C)(CC(O)(Cn1ccc(=O)c2ccc(Cl)cc21)C(F)(F)F)c1cc(F)ccc1O (stereo not drawn) [7-Chloro-1-[4-(5-fluoro-2-hydroxyphenyl)-2-hydroxy-4-methyl-2-trifluoromethylpentyl]-1H-quinolin-4-one] |  | potent activity |  |
| COc1ccc(F)cc1C(C)(C)CC(O)(Cn1ccc(=O)c2ccc(Cl)cc21)C(F)(F)F (stereo not drawn) [7-Chloro-1-[4-(5-fluoro-2-methoxyphenyl)-2-hydroxy-4-methyl-2-trifluoromethylpentyl]-1H-quinolin-4-one] |  | potent activity |  |
| CC(C)(CC(O)(Cn1ccc(=O)c2ccc(F)cc21)C(F)(F)F)c1cc(F)ccc1O (stereo not drawn) [7-Fluoro-1-[4-(5-fluoro-2-hydroxyphenyl)-2-hydroxy-4-methyl-2-trifluoromethylpentyl]-1H-quinolin-4-one] | inhibit | potent activity |  |
| COc1ccc(F)cc1C(C)(C)CC(O)(Cn1ccc(=O)c2ccc(F)cc21)C(F)(F)F (stereo not drawn) [7-Fluoro-1-[4-(5-fluoro-2-methoxyphenyl)-2-hydroxy-4-methyl-2-trifluoromethylpentyl]-1H-quinolin-4-one] |  | potent activity |  |
| CC(C)(CC(O)(Cn1ccc(=O)c2cccc(F)c21)C(F)(F)F)c1cc(F)ccc1O (stereo not drawn) [8-Fluoro-1-[4-(5-fluoro-2-hydroxyphenyl)-2-hydroxy-4-methyl-2-trifluoromethylpentyl]-1H-quinolin-4-one] |  | potent activity |  |
| COc1ccc(F)cc1C(C)(C)CC(O)(Cn1ccc(=O)c2cccc(F)c21)C(F)(F)F (stereo not drawn) [8-Fluoro-1-[4-(5-fluoro-2-methoxyphenyl)-2-hydroxy-4-methyl-2-trifluoromethylpentyl]-1H-quinolin-4-one] |  | potent activity |  |
| COc1ccc(F)cc1C(C)(C)CC(O)(Cn1[nH]c(=O)c2ccccc21)C(F)(F)F (stereo not drawn) [Example 23, 1-[4-(5-fluoro-2-methoxyphenyl)-2-hydroxy-4-methyl-2-trifluoromethylpentyl]-1,2-dihydroindazol-3-one] |  |  | 141 to 144 |
| COc1ccc(F)cc1C(C)(C)CC(O)(Cn1cc(C)c(=O)c2ccccc21)C(F)(F)F (stereo not drawn) [Example 26, 1-[4-(5-fluoro-2-methoxyphenyl)-2-hydroxy-4-methyl-2-trifluoromethylpentyl]-3-methyl-1H-quinolin-4-one] |  |  | > 225 |
| CCOc1ccc(F)cc1C(C)(C)CC(O)(Cn1ccc(=O)c2ccccc21)C(F)(F)F (stereo not drawn) [Example 27, 1-[4-(2-ethoxy-5-fluorophenyl)-2-hydroxy-4-methyl-2-trifluoromethylpentyl]-1H-quinolin-4-one] |  |  | 195 to 196 |
| CC(C)(CC(O)(Cn1ccc(=O)c2ccccc21)C(F)(F)F)c1cc(F)ccc1OC(F)F (stereo not drawn) [Example 28, 1-[4-(2-difluoromethoxy-5-fluorophenyl)-2-hydroxy-4-methyl-2-trifluoromethylpentyl]-1H-quinolin-4-one] |  |  | 150 to 155 |
| CC(C)(CC(O)(CN1CCN(C(=O)c2ccco2)CC1)C(F)(F)F)c1cc(F)ccc1O (stereo not drawn) [{4-[4-(5-Fluoro-2-hydroxyphenyl)-2-hydroxy-4-methyl-2-trifluoromethylpentyl]piperazin-1-yl}furan-2-ylmethanone] |  | potent activity |  |
| COc1ccc(F)cc1C(C)(C)CC(O)(CN1CCN(C(=O)c2ccco2)CC1)C(F)(F)F (stereo not drawn) [{4-[4-(5-Fluoro-2-methoxyphenyl)-2-hydroxy-4-methyl-2-trifluoromethylpentyl]piperazin-1-yl}furan-2-ylmethanone] |  | potent activity |  |
